Reference: US10829458B2 (Araxes Pharma LLC, priority 2015, dated 2020)

Legend:
[1] = target: T1, KRAS G12C 1-169, his-tagged protein, GDP-loaded (Homo sapiens, UniProt P01116, G12C); test: Biochemical assay: covalent modification of KRAS G12C measured by mass spectrometry (RapidFire/TOF or Q-Exactive); settings: covalent binding to KRAS G12C; compounds of structure (III)
T1 construct: KRAS G12C 1-169, his-tagged protein, GDP-loaded
Outline: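 Covalent adduct formation read by intact-mass spectrometry (TOF or Q Exactive Plus, charge envelopes deconvoluted into modified and unmodified species) after formic acid quench. Reactions contained 2 μM GDP-bound KRAS G12C 1-169 (his-tag) in Hepes/NaCl/MgCl2 buffer plus 10, 30 or 100 μM final compound, held 30 min, 2 h or 24 h at room temperature.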

Whole blood stability = format: in vitro ADME; settings: 37° C., time points 0, 1, 2, 4 hr, LC/MS/MS; for half-life at 5 µM: mouse, whole blood, read-out: Whole Blood Stability (T1/2) hr. Mouse (converted)
Protocol: Test compounds were prepared as a 500 μM stock solution in DMSO (Adding 10 μl of 10 mM DMSO stock solution to 190 μl of 100% DMSO). Whole blood was thawed on ice. A whole blood plate was prepared by adding 460 μl of the whole blood (different species as needed) to a 96-well in ml deep well plate. The whole blood plate was preincubated at 37° C. for 10 min. 4 μl of compound solution and 396 μl of whole blood was added to the plate and mixed thoroughly. Each sample was aliquoted (30 μl) to the incubation plate (cluster tubes) and quenched at time zero with ice-cold 100% ACN, and the incubation plates were added to the 37° C. incubator (200 μl).
The time zero sample was maintained at 4° C. until centrifuged. All other samples were quench at different time points (1, 2, 4 hr), vortexed for 30 seconds and centrifuged at 3500 rpm for 15 min at 4° C. 30 μl of supernatant was added to 170 μl 0.1% FA aqueous solution and the sample was analyzes by LC/MS/MS.

Which results are given for `C=CC(=O)N1CCN(c2ncnc3c(F)c(-c4c(O)cccc4F)c(Cl)cc23)C[C@@H]1C` [III-20, 1-((2S)-4-(6-chloro-8-fluoro-7-(2-fluoro-6-hydroxy-phenyl)quinazolin-4-yl)-2-methyl-piperazin-1-yl)prop-2-en-1-one]?
Binding % [1]: ++ (++ indicates activity from 50% to 90%); half-life at 5 µM (Whole blood stability): 10.6 h

What does the source list for `C=CC(=O)N1CCN(c2ncnc3c(F)c(-c4c(O)cccc4F)c(Cl)cc23)[C@@H](C)C1` (atropisomer, axis not shown) [III-24, 1-((S)-4-((S)-6-chloro-8-fluoro-7-(2-fluoro-6-hydroxy-phenyl)quinazolin-4-yl)-3-methyl-piperazin-1-yl)prop-2-en-1-one]?
Binding % [1]: +++ (+++ indicates binding activity greater than 90%); Whole Blood Stability (T1/2) hr. Mouse (Whole blood stability): 10.4 h

What does the source list for `C=CC(=O)N1[C@H](C)CN(c2ncnc3c(F)c(-c4c(O)cccc4F)c(Cl)cc23)C[C@@H]1C` [III-15, 1-((2S,6R)-4-(6-chloro-8-fluoro-7-(2-fluoro-6-hydroxy-phenyl)quinazolin-4-yl)-2,6-dimethyl-piperazin-1-yl)prop-2-en-1-one]?
Binding % [1]: ++ (++ indicates activity from 50% to 90%); Whole Blood Stability (T1/2) hr. Mouse (Whole blood stability): 11.1 h

For `C=CC(=O)N1[C@@H](C)CN(c2ncnc3c(F)c(-c4c(O)cccc4F)c(Cl)cc23)C[C@@H]1C` [III-18, 1-((2S,6S)-4-(6-chloro-8-fluoro-7-(2-fluoro-6-hydroxy-phenyl)quinazolin-4-yl)-2,6-dimethyl-piperazin-1-yl)prop-2-en-1-one], which Binding % [1] is on record?
Its Binding % is “+ (+ indicates binding activity up to 50%)”.

And the half-life at 5 µM (Whole blood stability)?
Its half-life at 5 µM is 8.8 h.

Which Binding % [1] does the source give for `C=CC(=O)N1[C@H](C)CN(c2ncnc3c(F)c(-c4c(O)cccc4F)c(Cl)cc23)C[C@@H]1C` (atropisomer, axis not shown) [III-29, 1-((2S,6R)-4-((R)-6-chloro-8-fluoro-7-(2-fluoro-6-hydroxy-phenyl)quinazolin-4-yl)-2,6-dimethyl-piperazin-1-yl)prop-2-en-1-one] here?
The Binding % was “+ (+ indicates binding activity up to 50%)”.

What about the half-life at 5 µM (Whole blood stability) of the same molecule?
Its half-life at 5 µM is 10.9 h.

For `C=CC(=O)N1CCN(c2ncnc3c(F)c(-c4c(O)cccc4F)c(Cl)cc23)C[C@H]1C` [III-21, 1-((2R)-4-(6-chloro-8-fluoro-7-(2-fluoro-6-hydroxy-phenyl)quinazolin-4-yl)-2-methyl-piperazin-1-yl)prop-2-en-1-one], which Binding % [1] is on record?
The Binding % was “++ (++ indicates activity from 50% to 90%)”.

And the half-life at 5 µM (Whole blood stability)?
Its half-life at 5 µM is over 12 h.

For `C=CC(=O)N1C[C@H](C)N(c2ncnc3c(F)c(-c4c(O)cccc4F)c(Cl)cc23)[C@@H](C)C1` [III-37, 1-((3S,5S)-4-(6-chloro-8-fluoro-7-(2-fluoro-6-hydroxy-phenyl)quinazolin-4-yl)-3,5-dimethyl-piperazin-1-yl)prop-2-en-1-one], which Binding % [1] is on record?
Its Binding % is “++ (++ indicates activity from 50% to 90%)”.

What about the half-life at 5 µM (Whole blood stability) of the same molecule?
Its half-life at 5 µM is 9.9 h.

Which Binding % [1] does the source give for `C=CC(=O)N1CCN(c2ncnc3c(F)c(-c4c(O)cccc4F)c(Cl)cc23)[C@@H](C)C1` (atropisomer, axis not shown) [III-23, 1-((S)-4-((R)-6-chloro-8-fluoro-7-(2-fluoro-6-hydroxy-phenyl)quinazolin-4-yl)-3-methyl-piperazin-1-yl)prop-2-en-1-one] here?
Its Binding % is “+ (+ indicates binding activity up to 50%)”.

What about the half-life at 5 µM (Whole blood stability) of the same molecule?
The half-life at 5 µM was over 12 h.

With `C=CC(=O)N1CCN(c2ncnc3c(F)c(-c4c(O)cccc4F)c(Cl)cc23)[C@@H](C)C1` [III-14, 1-((3S)-4-(6-chloro-8-fluoro-7-(2-fluoro-6-hydroxy-phenyl)quinazolin-4-yl)-3-methyl-piperazin-1-yl)prop-2-en-1-one] as the molecule, how does the Binding % [1] read?
Its Binding % is “++ (++ indicates activity from 50% to 90%)”.

And the “Whole Blood Stability (T1/2) hr. Mouse” value (Whole blood stability)?
Its value is 6.2 h.

Which results are given for `C=CC(=O)N1CCN(c2ncnc3c(F)c(-c4c(O)cccc4F)c(Cl)cc23)C(C)(C)C1` [III-17, 1-(4-(6-chloro-8-fluoro-7-(2-fluoro-6-hydroxy-phenyl)quinazolin-4-yl)-3,3-dimethyl-piperazin-1-yl)prop-2-en-1-one]?
Binding % [1]: ++ (++ indicates activity from 50% to 90%); half-life at 5 µM (Whole blood stability): 12.5 h

Which Binding % [1] does the source give for `C=CC(=O)N1[C@H](C)CN(c2ncnc3c(F)c(-c4c(O)cccc4F)c(Cl)cc23)C[C@H]1C` [III-22, 1-((2R,6R)-4-(6-chloro-8-fluoro-7-(2-fluoro-6-hydroxy-phenyl)quinazolin-4-yl)-2,6-dimethyl-piperazin-1-yl)prop-2-en-1-one] here?
The Binding % was “+ (+ indicates binding activity up to 50%)”.

And the half-life at 5 µM (Whole blood stability)?
Its half-life at 5 µM is over 12 h.

For `C=CC(=O)N1CCN(c2ncnc3c(F)c(-c4c(O)cccc4F)c(Cl)cc23)CC1` (atropisomer, axis not shown) [A, reference compound], which half-life at 5 µM (Whole blood stability) is on record?
The half-life at 5 µM was 3.99 h.
